# Data reported in US20090291964A1, “Potentiators of Antibacterial Activity” (priority 2003, published 2009).
# Like-named read-outs stand apart in the source and are kept apart here.
# Legend:
# Assay type in all cases: cell-based
# S. aureus SA-8325-4 = assay: MIC of fluoroquinolones with and without EPI; settings: Staphylococcus aureus, SA83254, read-out: MIC of antibacterial agent, EPI none
# From the text: (§1) A variety of strains may be used in these experiments, including, but not limited to, S. aureus ATCC 29213, E. faecalis ATCC 29212, and S. pneumoniae, S. aureus strains SA-1199, SA-1199B, SA-8325-4, and SA-K2068. S. aureus ATCC 29213, E. faecalis ATCC 29212, and S. pneumoniae ATCC 10015 were obtained from the American Type Culture Collection (Manassas, Va.). S. aureus strains SA-1199 (clinical isolate, susceptible), SA-1199B (SA-1199, NorA overproducing, also has A116E GrlA mutation), SA-8325-4 (NCTC 8325 cured of prophages), SA-K2068 (SA-8325-4, non-NorA multidrug efflux pump overproducing mutation) were obtained from Glenn Kaatz (Kaatz et al., “Identification and characterization of a novel efflux-related multidrug resistance phenotype in Staphylococcus aureus”, J. Antimicrob. Chemother. 50:833-838 (2002); 1993; Kaatz et al., “Phenothiazines and thioxanthenes inhibit multidrug efflux pump activity in Staphylococcus aureus”, Antimicrob. Agents Chemother. 47:719-726, Kaatz et al., “Efflux-mediated fluoroquinolone resistance in Staphylococcus aureus. Antimicrob. Agents Chemother.”, 37:1086-1094, 1993)).
# (§2) 3% sterile laked horse blood (Quad Five, Ryegate, Mont.) was added to assays for E. faecalis and S. Pneumoniae. A final concentration of 1% DMSO was present in all assays.
# [1] = tested on: S. aureus SA-1199 (clinical isolate, susceptible); assay: MIC of fluoroquinolones with and without EPI; settings: Staphylococcus aureus, read-out: MIC of antibacterial agent, EPI none
# From the text: as §1, §2
# [2] = tested on: S. aureus SA-K2068 (non-NorA multidrug efflux pump overproducing); assay: microbe, parasite or virus in culture; settings: Staphylococcus aureus
# From the text: as §1, §2
# (§3) Recent more hydrophobic fluoroquinolones such as gatifloxacin and moxifloxacin are less well recognized by NorA; however, recently one other pump in S. aureus has been described which also recognizes hydrophobic fluoroquinolones (Kaatz et al. 2002, supra). To investigate the potential of A-106 and C-9 to block the efflux of several fluoroquinolones in cells with constituitively over-expressed efflux pumps, we used S. aureus strains SA-1199B and K2068 (Table 3). […] Kaatz et al., “Phenothiazines and thioxanthenes inhibit multidrug efflux pump activity in Staphylococcus aureus”, Antimicrob. Agents Chemother. 47:719-726 (2003).
# [3] = tested on: E. faecalis clinical isolates; assay: MIC90 studies: fluoroquinolone susceptibility of clinical isolate panel with EPI; settings: Enterococcus faecalis, read-out: MIC, No EPI
# Description: (§4) Susceptibility studies with large panels of resistant clinical isolates were performed at Focus Technologies, Herndon, Va. according to NCCLS protocols (National Committee for Clinical Laboratory Standards, supra).
# (§5) To be useful in combination therapy, an EPI needs to substantially reduce the MIC of an antibiotic to within the range of clinical susceptibility. Because many different resistance mechanisms are often present in clinical isolates, including the likelihood of multiple target-based mutations in addition to efflux mutations, the barrier to antibiotic efficacy is much greater. […] Oxacillin and vancomycin MICs were also determined to identify which isolates were methicillin-resistant (S. aureus) and vancomycin-resistant (E. faecalis).
# [4] = tested on: S. aureus clinical isolates; assay: as above; settings: Staphylococcus aureus
# Description: as §4, §5
# S. aureus ATCC 29213 [5] = assay: MIC by NCCLS microdilution, antibacterial agents with and without EPI; settings: for MIC: Staphylococcus aureus; for MIC in the presence of 4X MEC of EPI, VX-710: VX-710 100 μg/ml; for MIC in the presence of 4X MEC of EPI, VX-853: VX-853 6.25 μg/ml; for MIC in the presence of 4X MEC of EPI, reserpine: reserpine 25 μg/ml; for MIC of EPI: EPI alone; for Fold-reduction in EtBr MIC / MIC of EtBr with EPI: EPIs used at the MEC, except VX-710 at 100 μg/ml
# Description: 3% sterile laked horse blood (Quad Five, Ryegate, Mont.) was added to assays for E. faecalis and S. Pneumoniae. A final concentration of 1% DMSO was present in all assays. […]
# A-106 and C-9 were tested at their respective MECs in combination with a variety of different classes of antibiotics against S. aureus ATCC 29213 (Table 2).
# [6] = tested on: S. aureus SA-1199B (NorA overproducing); assay: MIC of fluoroquinolones with and without EPI; settings: Staphylococcus aureus
# From the text: as §1, §2, §3
# S. pneumoniae ATCC 10015 = assay: MIC by NCCLS microdilution, EtBr/EPI with and without EPI; settings: Streptococcus pneumoniae, ATCC10015, read-out: MIC of EtBr without EPI
# Description: as §2
# (§6) EtBr is a general substrate for many different efflux pumps in bacteria. Markham et al., “Multiple Novel Inhibitors of the NorA Multidrug Transporter of Staphylococcus aureus”, Antimicrob. Agents Chemother. 43:2404-2408 (1999). Since EtBr is a non-specific DNA intercalator, the only known mechanism of resistance to EtBr is via efflux. Markham et al., “Multiple Novel Inhibitors of the NorA Multidrug Transporter of Staphylococcus aureus”, Antimicrob. Agents Chemother. 43:2404-2408 (1999).
# E. faecalis ATCC 29212 = assay: as above; settings: Enterococcus faecalis, ATCC29212, read-out: MIC of EtBr without EPI
# Description: as §2, §6
# S. aureus ATCC 29213 [7] = assay: Minimal effective concentration (MEC) of EPI for EtBr; settings: S. aureus ATCC 29213; lowest amount of EPI which produces the maximum effect on the MIC of ethidium bromide
# Description: The MEC was determined as the minimal concentration of EPI that produced the maximal reduction in substrate MIC.
# The minimum effective concentration (MEC) for inhibition of EtBr efflux was determined in S. aureus, E. faecalis and S. pneumoniae for A-106 and C-9; reserpine was used as a comparator (Table 1).
# [8] = read-out: MIC of antibacterial agent, EPI none
# [9] = ATCC29213, read-out: MIC of antibacterial agent, EPI none, S. aureus ATCC 29213, no EPI
# [10] = ATCC29213, read-out: MIC, No EPI, antibacterial agent alone
# [11] = read-out: MIC of Gatifloxacin without EPI
smiles,measurement,setting,value
"CCn1cc(C(=O)O)c(=O)c2cc(F)c(N3CCNCC3)cc21 [norfloxacin, reference compound]",MIC,S. aureus SA-8325-4,1 µg/mL
same,MIC,[1],0.5 µg/mL
same,MIC,[2]; [8],8 µg/mL
same,MIC,[3]; E. faecalis clinical isolate 1,4 µg/mL
same,MIC,[3]; E. faecalis clinical isolate 2,4 µg/mL
same,MIC,[3]; E. faecalis clinical isolate 3,128 µg/mL
same,MIC,[3]; E. faecalis clinical isolate 4,128 µg/mL
same,MIC,[3]; E. faecalis clinical isolate 5,64 µg/mL
same,MIC,[3]; E. faecalis clinical isolate 6,2 µg/mL
same,MIC,[3]; E. faecalis clinical isolate 7,2 µg/mL
same,MIC,[3]; E. faecalis clinical isolate 8,128 µg/mL
same,MIC,[3]; E. faecalis clinical isolate 9,4 µg/mL
same,MIC,[3]; E. faecalis clinical isolate 10,64 µg/mL
same,MIC,[3]; E. faecalis clinical isolate 11,128 µg/mL
same,MIC,[3]; E. faecalis clinical isolate 12,2 µg/mL
same,MIC,[3]; E. faecalis clinical isolate 13,2 µg/mL
same,MIC,[3]; E. faecalis clinical isolate 14,4 µg/mL
same,MIC,[3]; E. faecalis clinical isolate 15,4 µg/mL
same,MIC,[3]; E. faecalis clinical isolate 16,4 µg/mL
same,MIC,[3]; E. faecalis clinical isolate 17,4 µg/mL
same,MIC,[3]; E. faecalis clinical isolate 18,128 µg/mL
same,MIC,[3]; E. faecalis clinical isolate 19,4 µg/mL
same,MIC,[3]; E. faecalis clinical isolate 20,4 µg/mL
same,MIC,[3]; E. faecalis clinical isolate 21,2 µg/mL
same,MIC,[3]; E. faecalis clinical isolate 22,128 µg/mL
same,MIC,[3]; E. faecalis clinical isolate 23,64 µg/mL
same,MIC,[3]; E. faecalis clinical isolate 24,> 256 µg/mL
same,MIC,[3]; E. faecalis clinical isolate 25,128 µg/mL
same,MIC,[3]; E. faecalis clinical isolate 26,> 256 µg/mL
same,MIC,[4]; S. aureus clinical isolate 1,16 µg/mL
same,MIC,[4]; S. aureus clinical isolate 2,1 µg/mL
same,MIC,[4]; S. aureus clinical isolate 3,1 µg/mL
same,MIC,[4]; S. aureus clinical isolate 4,256 µg/mL
same,MIC,[4]; S. aureus clinical isolate 5,1 µg/mL
same,MIC,[4]; S. aureus clinical isolate 6,32 µg/mL
same,MIC,[4]; S. aureus clinical isolate 7,2 µg/mL
same,MIC,[4]; S. aureus clinical isolate 8,4 µg/mL
same,MIC,[4]; S. aureus clinical isolate 9,1 µg/mL
same,MIC,[4]; S. aureus clinical isolate 10,64 µg/mL
same,MIC,[4]; S. aureus clinical isolate 11,64 µg/mL
same,MIC,[4]; S. aureus clinical isolate 12,1 µg/mL
same,MIC,[4]; S. aureus clinical isolate 13,256 µg/mL
same,MIC,[4]; S. aureus clinical isolate 14,256 µg/mL
same,MIC,[4]; S. aureus clinical isolate 15,256 µg/mL
same,MIC,"S. aureus ATCC 29213 [5]; ATCC29213, antibacterial agent alone, read-out: MIC, No EPI",1 µg/mL
same,MIC,S. aureus ATCC 29213 [5]; [9],0.5 µg/mL
same,"MIC in the presence of 4X MEC of EPI, VX-710",S. aureus ATCC 29213 [5],0.25 µg/mL
same,"MIC in the presence of 4X MEC of EPI, VX-853",S. aureus ATCC 29213 [5],0.5 µg/mL
same,"MIC in the presence of 4X MEC of EPI, reserpine",S. aureus ATCC 29213 [5],0.5 µg/mL
"CC[n+]1c(-c2ccccc2)c2cc(N)ccc2c2ccc(N)cc21 [EtBr, Ethidium bromide]",MIC,S. aureus SA-8325-4,3.1 µg/mL
same,MIC,[1],6.2 µg/mL
same,MIC,[6]; [8],25 µg/mL
same,MIC,[2]; [8],12.5 µg/mL
same,MIC,S. pneumoniae ATCC 10015,2 µg/mL
same,MIC,E. faecalis ATCC 29212,6.3 µg/mL
same,MIC of EtBr without EPI,S. aureus ATCC 29213 [5]; S. aureus ATCC 29213,6.2 µg/mL
same,MIC,"S. aureus ATCC 29213 [5]; ATCC29213, read-out: MIC of EtBr without EPI, S. aureus ATCC 29213",6.3 µg/mL
same,MIC,S. aureus ATCC 29213 [5]; [9],6.2 µg/mL
same,MIC,S. aureus ATCC 29213 [5]; [10],6.2 µg/mL
same,"MIC in the presence of 4X MEC of EPI, VX-710",S. aureus ATCC 29213 [5],0.2 µg/mL
same,"MIC in the presence of 4X MEC of EPI, VX-853",S. aureus ATCC 29213 [5],1.6 µg/mL
same,"MIC in the presence of 4X MEC of EPI, reserpine",S. aureus ATCC 29213 [5],1.6 µg/mL
COc1cc(C(=O)C(=O)N2CCCCC2C(=O)OC(CCCc2ccccc2)CCCc2cccnc2)cc(OC)c1OC (stereo not shown) [VRT-010367],MEC of EPI,S. aureus ATCC 29213 [7],1.6 µg/mL
same,MIC of EPI,S. aureus ATCC 29213 [5]; S. aureus ATCC 29213,>50 µg/mL
same,Fold-reduction in EtBr MIC,S. aureus ATCC 29213 [5]; S. aureus ATCC 29213,2
same,MIC of EtBr with EPI,S. aureus ATCC 29213 [5]; S. aureus ATCC 29213,3.1 µg/mL
"COc1c(N2CCNC(C)C2)c(F)cc2c(=O)c(C(=O)O)cn(C3CC3)c12 (stereo not shown) [gatifloxacin, reference compound]",MIC,S. aureus SA-8325-4,0.125 µg/mL
same,MIC,[1],0.063 µg/mL
same,MIC,[6]; [11],0.5 µg/mL
same,MIC,[6]; [8],0.5 µg/mL
same,MIC,[2]; [11],1 µg/mL
same,MIC,[2]; [8],1 µg/mL
same,MIC,"S. aureus ATCC 29213 [5]; ATCC29213, read-out: MIC of Gatifloxacin without EPI, S. aureus ATCC 29213 (Table 4)",0.125 µg/mL
same,MIC,S. aureus ATCC 29213 [5]; [9],0.063 µg/mL
same,MIC,S. aureus ATCC 29213 [5]; [10],0.125 µg/mL
same,"MIC in the presence of 4X MEC of EPI, VX-710",S. aureus ATCC 29213 [5],0.125 µg/mL
same,"MIC in the presence of 4X MEC of EPI, VX-853",S. aureus ATCC 29213 [5],0.125 µg/mL
same,"MIC in the presence of 4X MEC of EPI, reserpine",S. aureus ATCC 29213 [5],0.125 µg/mL
COc1cc(C(=O)C(=O)N(C)C(Cc2ccccc2)C(=O)N(Cc2ccccc2)C(CCc2ccncc2)CCc2ccncc2)cc(OC)c1OC (stereo not shown) [VRT-013661],MEC of EPI,S. aureus ATCC 29213 [7],3.1 µg/mL
same,MIC of EPI,S. aureus ATCC 29213 [5]; S. aureus ATCC 29213,>100 µg/mL
same,Fold-reduction in EtBr MIC,S. aureus ATCC 29213 [5]; S. aureus ATCC 29213,4
same,MIC of EtBr with EPI,S. aureus ATCC 29213 [5]; S. aureus ATCC 29213,1.6 µg/mL
